Experimental data taken from PubChem BioAssay AID330 (DTP/NCI, 2004).
“And” between values parts separate entries of the source, which are not always exact repeats. Equal values may be shown once. Toxic doses and inconclusive results are not listed.

Test system: P388 leukemia ip, CD2F1 mice, survival T/C
Test: NCI In Vivo Anticancer Drug Screen. Data for tumor model P388 Leukemia (intraperitoneal) in CD2F1 (CDF1) mice
Conditions: endpoint: median survival time, higher = longer survival
How it was run: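 Mice carrying the transplanted tumor received test compound or vehicle. Survival was recorded in each group, and the value is the treated-group measurement divided by that of the vehicle-treated control group.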

[1] = dose: 60.0 mg/kg/injection, schedule: Q01DX005 (ip), vehicle: saline with Tween-80
[2] = dose: 120.0 mg/kg/injection, schedule: Q01DX005 (ip), vehicle: saline with Tween-80
[3] = dose: 240.0 mg/kg/injection, schedule: Q01DX005 (ip), vehicle: saline with Tween-80

Cc1ccc(S(=O)(=O)CC2OCC3OC(C)(C)OC23)cc1 (stereo not given)
T/C (dose: 12.5 mg/kg/injection, schedule: Q01DX009 (ip), vehicle: water): 100 % of control | T/C (dose: 25.0 mg/kg/injection, schedule: Q01DX009 (ip), vehicle: water): 93 % of control | T/C (dose: 50.0 mg/kg/injection, schedule: Q01DX009 (ip), vehicle: water): 89 % of control | T/C (dose: 100.0 mg/kg/injection, schedule: Q01DX009 (ip), vehicle: water): 100 % of control | T/C (dose: 200.0 mg/kg/injection, schedule: Q01DX009 (ip), vehicle: water): 94 % of control

OC1(C2NCCc3ccccc32)CCN(CCc2ccccc2)CC1 (stereo not given)
T/C (dose: 50.0 mg/kg/injection, schedule: Q01DX009 (ip), vehicle: Klucel (hydroxypropylcellulose) (HPC)): 87 % of control | T/C (dose: 100.0 mg/kg/injection, schedule: Q01DX009 (ip), vehicle: Klucel (hydroxypropylcellulose) (HPC)): 94 % of control

CC/C(=N/N(C)C)C(=O)O
T/C (dose: 60.0 mg/kg/injection, schedule: Q01DX005 (ip), vehicle: saline): 102 % of control | T/C (dose: 120.0 mg/kg/injection, schedule: Q01DX005 (ip), vehicle: saline): 105 % of control | T/C (dose: 240.0 mg/kg/injection, schedule: Q01DX005 (ip), vehicle: saline): 98 % of control

Cc1ccc(C)c2c1CCC2C (stereo not given)
T/C (dose: 25.0 mg/kg/injection, schedule: Q01DX009 (ip), vehicle: saline with Tween-80): 101 % of control and 110 % of control | T/C (dose: 50.0 mg/kg/injection, schedule: Q01DX009 (ip), vehicle: saline with Tween-80): 111 % of control and 116 % of control | T/C (dose: 100.0 mg/kg/injection, schedule: Q01DX009 (ip), vehicle: saline with Tween-80): 104 % of control and 114 % of control

CCCc1cccc2c3c([nH]c12)C(CC)(CC(=O)O)OCC3 (stereo not given)
T/C (dose: 100.0 mg/kg/injection, schedule: Q01DX001 (ip), vehicle: Klucel (hydroxypropylcellulose) (HPC)): 96 % of control | T/C (dose: 200.0 mg/kg/injection, schedule: Q01DX001 (ip), vehicle: Klucel (hydroxypropylcellulose) (HPC)): 96 % of control | T/C (dose: 400.0 mg/kg/injection, schedule: Q01DX001 (ip), vehicle: Klucel (hydroxypropylcellulose) (HPC)): 91 % of control

CNC(=O)Oc1ccc[nH]c1=O
T/C (dose: 16.0 mg/kg/injection, schedule: Q01DX009 (ip), vehicle: saline with Tween-80): 106 % of control and 110 % of control | T/C (dose: 25.0 mg/kg/injection, schedule: Q01DX009 (ip), vehicle: saline): 106 % of control and 112 % of control | T/C (dose: 25.0 mg/kg/injection, schedule: Q01DX009 (sc), vehicle: saline): 102 % of control and 109 % of control | T/C (dose: 32.0 mg/kg/injection, schedule: Q01DX009 (ip), vehicle: saline with Tween-80): 112 % of control and 122 % of control | T/C (dose: 50.0 mg/kg/injection, schedule: Q01DX009 (ip), vehicle: saline): 116 % of control and 120 % of control | T/C (dose: 50.0 mg/kg/injection, schedule: Q01DX009 (sc), vehicle: saline): 109 % of control and 115 % of control | T/C (dose: 64.0 mg/kg/injection, schedule: Q01DX009 (ip), vehicle: saline with Tween-80): 120 % of control | T/C (dose: 100.0 mg/kg/injection, schedule: Q01DX009 (sc), vehicle: saline): 111 % of control and 113 % of control | T/C (dose: 128.0 mg/kg/injection, schedule: Q01DX009 (ip), vehicle: saline with Tween-80): 120 % of control | T/C (dose: 200.0 mg/kg/injection, schedule: Q01DX009 (sc), vehicle: saline): 115 % of control and 120 % of control | T/C (dose: 400.0 mg/kg/injection, schedule: Q01DX009 (ip), vehicle: saline): 153 % of control | T/C (dose: 400.0 mg/kg/injection, schedule: Q01DX009 (sc), vehicle: saline): 122 % of control

CN(C)CCCSc1c2ccccc2nc2cccc([N+](=O)[O-])c12
T/C [1]: 94 % of control | T/C [2]: 106 % of control

C(=N\Nc1nnc2c3cccnc3c3ccccc3c2n1)/c1ccc2c(c1)OCO2
T/C (dose: 100.0 mg/kg/injection, schedule: Q01DX001 (ip), vehicle: saline with Tween-80): 108 % of control | T/C (dose: 200.0 mg/kg/injection, schedule: Q01DX001 (ip), vehicle: saline with Tween-80): 104 % of control

O=C1c2cc([N+](=O)[O-])cc3cc([N+](=O)[O-])cc(c23)C(=O)N1CCNCCN1C(=O)c2cc([N+](=O)[O-])cc3cc([N+](=O)[O-])cc(c23)C1=O
T/C (dose: 50.0 mg/kg/injection, schedule: Q01DX005 (ip), vehicle: saline with Tween-80): 100 % of control and 123 % of control | T/C (dose: 100.0 mg/kg/injection, schedule: Q01DX005 (ip), vehicle: saline with Tween-80): 107 % of control | T/C (dose: 200.0 mg/kg/injection, schedule: Q01DX005 (ip), vehicle: saline with Tween-80): 105 % of control and 88 % of control

COC(=O)N(C)C1=CCC(C(C)(C)C)CC1 (stereo not given)
T/C (dose: 25.0 mg/kg/injection, schedule: Q01DX005 (ip), vehicle: Klucel (hydroxypropylcellulose) (HPC)): 103 % of control | T/C (dose: 50.0 mg/kg/injection, schedule: Q01DX005 (ip), vehicle: Klucel (hydroxypropylcellulose) (HPC)): 106 % of control | T/C (dose: 100.0 mg/kg/injection, schedule: Q01DX005 (ip), vehicle: Klucel (hydroxypropylcellulose) (HPC)): 107 % of control | T/C (dose: 200.0 mg/kg/injection, schedule: Q01DX005 (ip), vehicle: Klucel (hydroxypropylcellulose) (HPC)): 105 % of control

O=C(O)C1CC2c3ccccc3C1([N+](=O)[O-])c1ccccc12 (stereo not given)
T/C [1]: 101 % of control | T/C [2]: 104 % of control | T/C [3]: 109 % of control

CC1=CC2C3C(=O)NC(=O)C3C1(C)C1C3C(=O)NC(=O)C3C21 (stereo not given)
T/C [1]: 100 % of control | T/C [2]: 100 % of control | T/C [3]: 101 % of control
